What all share (test): Antibacterial activity in vitro, MIC by broth microdilution
One experiment deals with H. influenzae Hain_49247. The experiment is classed as cell-based, Haemophilus influenzae. The note with it: Table 5, Strain ID M: H. influenzae Hain_49247; unit assumed. A digest of the protocol: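 Visible-growth inhibition defined the MIC, obtained by NCCLS broth microdilution at 35° C. over 18-24 hours with a final inoculum of 3×10^5–7×10^5 CFU/mL.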
Experiment [1] concerns S. pneumoniae Stpn_Erm S 4297. The experiment is classed as cell-based, Streptococcus pneumoniae. The note with it: Table 5, Strain ID J: S. pneumoniae Stpn_Erm S 4297. A digest of the protocol:
(§1)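 Broth microdilution per NCCLS in cation-adjusted Mueller-Hinton broth, final inoculum 3×10^5–7×10^5 CFU/mL, 2-fold serial drug dilutions, 35° C. for 18-24 hours. S. pneumoniae grown in CAMHB with 2-5% lysed horse blood under 5-10% CO2. MIC is the lowest concentration preventing visible growth.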

Experiment [2] relates to S. pneumoniae Stpn_Erm 6849. The format is cell-based, Streptococcus pneumoniae. The note with it: Table 5, Strain ID I: S. pneumoniae Stpn_Erm 6849; unit assumed. In a few lines: as §1
In experiment [3] the test system is S. pneumoniae Stpn_Mef S 3427. The format is cell-based, Streptococcus pneumoniae. The note with it: Table 5, Strain ID L: S. pneumoniae Stpn_Mef S 3427; unit assumed. A digest of the protocol: as §1
In experiment [4] the test system is S. pneumoniae Stpn_Mef 5654. The format is cell-based, Streptococcus pneumoniae. The note with it: Table 5, Strain ID K: S. pneumoniae Stpn_Mef 5654; unit assumed. A digest of the protocol:
as §1

Experiment [5] has as its system S. pneumoniae Stpn_280-962 Pen S. The format is cell-based, Streptococcus pneumoniae. The note with it: Table 5, Strain ID H: S. pneumoniae Stpn_280-962. In a few lines: as §1
Another experiment concerns S. pneumoniae Stpn_49619. The format is cell-based, Streptococcus pneumoniae. The note with it: Table 5, Strain ID F: S. pneumoniae Stpn_49619. A digest of the protocol:
as §1

The subject of experiment [6] is S. pneumoniae Stpn_297-749 Pen R. The experiment is classed as cell-based, Streptococcus pneumoniae. The note with it: Table 5, Strain ID G: S. pneumoniae Stpn_297-749. A digest of the protocol: as §1
Experiment [7] deals with S. epidermidis Step_14990. The format is cell-based. The note with it: Table 5, Strain ID B: S. epidermidis Step_14990; unit assumed. A digest of the protocol:
as §1

The next experiment has as its system S. pyogenes Stpy_8668. The experiment is classed as cell-based. The note with it: Table 5, Strain ID E: S. pyogenes Stpy_8668. In a few lines:
as §1

Experiment [8] deals with S. epidermidis Step_f50654 Pen S. The experiment is classed as cell-based. The note with it: Table 5, Strain ID C: S. epidermidis Step_f50654; unit assumed. A digest of the protocol:
as §1

Another experiment deals with E. faecalis Enfa_29212. The experiment is classed as cell-based. The note with it: Table 5, Strain ID D: E. faecalis Enfa_29212; unit assumed. In a few lines:
as §1

A further experiment relates to S. aureus Stau_29213. The experiment is classed as cell-based. The note with it: Table 5, Strain ID A: S. aureus Stau_29213; unit assumed. In a few lines: as §1

Converted amounts (≈) assume the structure as drawn.

Six molecules from US6756359B2, “C12 modified erythromycin macrolides and ketolides having antibacterial activity” (Chiron Corporation, priority 2001, dated 2004) can be followed below.

Take `CC[C@H]1OC(=O)[C@H](C)C(=O)[C@H](C)[C@@H](OC2O[C@H](C)C[C@H](N(C)C)[C@H]2O)[C@@](C)(OC)C[C@@H](C)C(=O)[C@H](C)[C@H]2N(CCCCn3cnc(-c4cnccn4)c3)C(=O)O[C@]12CC` (stereo partly drawn) [Example 26, (3aS,4R,7R,9R,10R,11S,13R,15R,15aR)-3a,4-diethyl-11-methoxy-7,9,11,13,15-pentamethyl-2,6,8,14-tetraoxo-1-[4-(4-pyrazin-2-yl-1H-imidazol-1-yl)butyl]tetradecahydro-2H-oxacyclotetradecino [4,3-d][1,3]oxazol-10-yl 3,4,6-trideoxy-3-(dimethylamino)-D-xylo-hexopyranoside]: the MIC is 3.13 µg/mL (≈ 3.78 µM) in the experiment with H. influenzae Hain_49247; “≦0.05” in experiment [1]; 0.2 µg/mL (≈ 0.242 µM) in experiment [2]; 0.1 µg/mL (≈ 0.121 µM) in [3]; 0.4 µg/mL (≈ 0.484 µM) in [4]; “≦0.05” in [5]. For the same molecule, the MIC result with S. pneumoniae Stpn_49619 is “≦0.05”; in experiment [6], “≦0.05”; in experiment [7], 0.2 µg/mL (≈ 0.242 µM); against S. pyogenes Stpy_8668, “≦0.05”; in [8], 0.2 µg/mL (≈ 0.242 µM); in the experiment on E. faecalis Enfa_29212, 0.2 µg/mL (≈ 0.242 µM). For the same molecule, the MIC against S. aureus Stau_29213 turned out to be 0.2 µg/mL (≈ 0.242 µM).

Consider `CC[C@H]1OC(=O)[C@H](C)C(=O)[C@H](C)[C@@H](OC2O[C@H](C)C[C@H](N(C)C)[C@H]2O)[C@@](C)(OC)C[C@@H](C)C(=O)[C@H](C)[C@H]2N(CCCOc3ccc(-c4cccnc4)cc3)C(=O)O[C@]12CC` (stereo partly drawn) [Example 36, (3aS,4R,7R,9R,10R,11S,13R,15R,15aR)-3a,4-diethyl-11-methoxy-7,9,11,13,15-pentamethyl-2,6,8,14-tetraoxo-1-[3-(4-pyridin-3-ylphenoxy)propyl]-tetradecahydro-2H-oxacyclotetradecino[4,3-d][1,3]oxazol-10-yl 3,4,6-trideoxy-3-(dimethylamino)-D-xylo-hexopyranoside], for which the MIC in the experiment with H. influenzae Hain_49247 is 0.2 µg/mL (≈ 0.239 µM); in experiment [1] (unit assumed) it was 12.5 µg/mL (≈ 14.9 µM); in experiment [2], 0.1 µg/mL (≈ 0.119 µM); in experiment [3], 0.78 µg/mL (≈ 0.931 µM); in experiment [4] it was 12.5 µg/mL (≈ 14.9 µM); in [5] (unit assumed), 0.1 µg/mL (≈ 0.119 µM). In addition, the MIC with S. pneumoniae Stpn_49619 (unit assumed) turned out to be 25 µg/mL (≈ 29.8 µM); in [6] (unit assumed), 0.1 µg/mL (≈ 0.119 µM); in experiment [7] it was 1.56 µg/mL (≈ 1.86 µM); against S. pyogenes Stpy_8668 (unit assumed), 0.4 µg/mL (≈ 0.477 µM); in [8] it was 0.78 µg/mL (≈ 0.931 µM); against E. faecalis Enfa_29212, 0.78 µg/mL (≈ 0.931 µM). Further, the MIC in the experiment with S. aureus Stau_29213 was determined as 6.25 µg/mL (≈ 7.46 µM).

For `C/C=C\[C@]12OC(=O)N(CCCCn3cnc(-c4cccnc4)c3)[C@@H]1[C@@H](C)C(=O)[C@H](C)C[C@](C)(OC)[C@H](O[C@@H]1O[C@H](C)C[C@H](N(C)C)[C@H]1O)[C@@H](C)C(=O)[C@](C)(F)C(=O)O[C@@H]2CC` [Example 66, (3aS,4R,7S,9R,10R,11S,13R,15R,15aR)-4-ethyl-7-fluoro-11-methoxy-7,9,11,13,15-pentamethyl-2,6,8,14-tetraoxo-3a-[(1Z)-prop-1-enyl]-1-[4-(4-pyridin-3-yl-1H-imidazol-1-yl)butyl]tetradecahydro-2H-oxacyclotetradecino[4,3-d][1,3]oxazol-10-yl 3,4,6-trideoxy-3-(dimethylamino)-D-xylo-hexopyranoside], the MIC was 6.25 µg/mL (≈ 7.3 µM) with H. influenzae Hain_49247; 0.1 µg/mL (≈ 0.117 µM) in [1] (unit assumed); 0.2 µg/mL (≈ 0.234 µM) in experiment [2]; 0.1 µg/mL (≈ 0.117 µM) in [3]; 0.4 µg/mL (≈ 0.467 µM) in experiment [4]; “≦0.05” in [5]. Moreover, the MIC result with S. pneumoniae Stpn_49619 was “≦0.05”; in experiment [6], “≦0.05”; in [7] it was 0.2 µg/mL (≈ 0.234 µM); with S. pyogenes Stpy_8668 it was “≦0.05”; in [8], 0.2 µg/mL (≈ 0.234 µM); in the experiment with E. faecalis Enfa_29212, 0.01 µg/mL (≈ 0.0117 µM). Also, the MIC against S. aureus Stau_29213 was 0.2 µg/mL (≈ 0.234 µM).

For `CC[C@H]1OC(=O)[C@H](C)C(=O)[C@H](C)[C@@H](OC2O[C@H](C)C[C@H](N(C)C)[C@H]2O)[C@@](C)(OC)C[C@@H](C)C(=O)[C@H](C)[C@H]2N(CCCCn3cnc4ncccc43)C(=O)O[C@]12CC` (stereo partly drawn) [Example 22, (3aS,4R,7R,9R,10R,11S,13R,15R,15aR)-3a,4-diethyl-1-[4-(1H-imidazo[4,5-b]pyridin-1-yl)butyl]-11-methoxy-7,9,11,13,15-pentamethyl-2,6,8,14-tetraoxotetradecahydro-2H-oxacyclotetradecino[4,3-d][1,3]oxazol-10-yl 3,4,6-trideoxy-3-(dimethylamino)-D-xylo-hexopyranoside], the MIC was 3.13 µg/mL (≈ 3.91 µM) against H. influenzae Hain_49247; 0.1 µg/mL (≈ 0.125 µM) in [1] (unit assumed); 0.2 µg/mL (≈ 0.25 µM) in experiment [2]; 0.2 µg/mL (≈ 0.25 µM) in experiment [3]; 0.78 µg/mL (≈ 0.975 µM) in [4]; “≦0.05” in experiment [5]. Also, the MIC result against S. pneumoniae Stpn_49619 was “≦0.05”; in experiment [6], “≦0.05”; in [7], 0.4 µg/mL (≈ 0.5 µM); in the experiment with S. pyogenes Stpy_8668 it was “≦0.05”; in experiment [8] it was 0.4 µg/mL (≈ 0.5 µM); with E. faecalis Enfa_29212, 0.2 µg/mL (≈ 0.25 µM). For the same molecule, the MIC in the experiment with S. aureus Stau_29213 worked out at 0.4 µg/mL (≈ 0.5 µM).

As to `CC[C@H]1OC(=O)[C@H](C)C(=O)[C@H](C)[C@@H](OC2O[C@H](C)C[C@H](N(C)C)[C@H]2O)[C@@](C)(OC)C[C@@H](C)C(=O)[C@H](C)[C@H]2N(CCCC(C)(C)n3cnc(-c4cccnc4)c3)C(=O)O[C@]12CC` (stereo partly drawn) [Example 31, (3aS,4R,7R,9R,10R,11S,13R,15R,15aR)-3a,4-diethyl-11-methoxy-7,9,11,13,15-pentamethyl-1-[4-methyl-4-(4-pyridin-3-yl-1H-imidazol-1-yl)pentyl]-2,6,8,14-tetraoxotetradecahydro-2H-oxacyclotetradecino[4,3-d][1,3]oxazol-10-yl 3,4,6-trideoxy-3-(dimethylamino)-D-xylo-hexopyranoside], the MIC against H. influenzae Hain_49247 is 6.25 µg/mL (≈ 7.32 µM); in experiment [1] (unit assumed), 0.2 µg/mL (≈ 0.234 µM); in experiment [2], 0.4 µg/mL (≈ 0.468 µM); in experiment [3] it was 0.2 µg/mL (≈ 0.234 µM); in experiment [4], 0.78 µg/mL (≈ 0.913 µM); in experiment [5] it was “≦0.05”. The MIC result against S. pneumoniae Stpn_49619 is “≦0.05”; in experiment [6] it was “≦0.05”; in experiment [7], 0.4 µg/mL (≈ 0.468 µM); with S. pyogenes Stpy_8668 it was “≦0.05”; in [8] it was 0.4 µg/mL (≈ 0.468 µM); against E. faecalis Enfa_29212, 0.2 µg/mL (≈ 0.234 µM). In the experiment with S. aureus Stau_29213, the MIC was 0.2 µg/mL (≈ 0.234 µM).

Consider `CC[C@H]1OC(=O)[C@@](C)(F)C(=O)[C@H](C)[C@@H](OC2O[C@H](C)C[C@H](N(C)C)[C@H]2O)[C@@](C)(OC)C[C@@H](C)C(=O)[C@H](C)[C@H]2N(CCCCc3ccnc4ccccc34)C(=O)O[C@]12CC` (stereo partly drawn) [Example 17, (3aS,4R,7S,9R,10R,11S,13R,15R,15aR)-3a,4-diethyl-7-fluoro-11-methoxy-7,9,11,13,15-pentamethyl-2,6,8,14-tetraoxo-1-(4-quinolin-4-ylbutyl)tetradecahydro-2H-oxacyclotetradecino[4,3-d][1,3]oxazol-10-yl 3,4,6-trideoxy-3-(dimethylamino)-D-xylo-hexopyranoside], for which the MIC was 3.13 µg/mL (≈ 3.78 µM) in the experiment on H. influenzae Hain_49247; 0.2 µg/mL (≈ 0.242 µM) in [1] (unit assumed); 0.78 µg/mL (≈ 0.942 µM) in experiment [2]; 0.1 µg/mL (≈ 0.121 µM) in [3]; 0.4 µg/mL (≈ 0.483 µM) in experiment [4]; “≦0.05” in [5]. For the same molecule, the MIC result with S. pneumoniae Stpn_49619 was “≦0.05”; in experiment [6] it was “≦0.05”; in experiment [7], 0.4 µg/mL (≈ 0.483 µM); in the experiment with S. pyogenes Stpy_8668 (unit assumed) it was 0.1 µg/mL (≈ 0.121 µM); in experiment [8] it was 0.4 µg/mL (≈ 0.483 µM); in the experiment on E. faecalis Enfa_29212, 0.2 µg/mL (≈ 0.242 µM). The molecule further came in with an MIC in the experiment on S. aureus Stau_29213 of 0.4 µg/mL (≈ 0.483 µM).
